Measured values from patent US7074789B2, “Kinase inhibitors” (Amgen Inc., priority 1999, dated 2006).

Key:
Type in all cases: biochemical
[1] = target: T1, EGFR (Homo sapiens, UniProt P00533); assay: Kinase inhibition assay (33P transfer), EGFR; conditions: Table 2, kinase inhibition class; read-out: EGFR-1
T1 construct: Kinases are expressed as either kinase domains or full length constructs; made in house
Method in brief: (§1)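 Activity read as 33P incorporation from ATP into poly(Glu,Tyr) 4:1 or poly(Arg,Ser) 3:1 substrate bound to microtiter plates, measured by scintillation after acid washing. Enzymes were affinity-purified GST or polyHis fusions (kinase domain or full length) from E. coli or baculovirus; IC50 = 50% reduction in labelled phosphate.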

[2] = target: T2, ErbB4 (Homo sapiens, UniProt Q15303); assay: Kinase inhibition assay (33P transfer), ErbB4; conditions: read-out: ErbB4-1
T2 construct: Kinases are expressed as either kinase domains or full length constructs; made in house

[3] = target: T3, Fyn (Homo sapiens, UniProt P06241); assay: Kinase inhibition assay (33P transfer), Fyn; conditions: read-out: Fyn-1
T3 construct: Kinases are expressed as either kinase domains or full length constructs; made in house
Method in brief: as §1

[4] = target: T4, Src (Homo sapiens, UniProt P12931); assay: Kinase inhibition assay (33P transfer), Src; conditions: Table 6, Src-1 kinase inhibition class
T4 construct: Kinases are expressed as either kinase domains or full length constructs; made in house
Method in brief: as §1

[5] = target: T5, EPHB4 (Homo sapiens, UniProt P54760); assay: Kinase inhibition assay (33P transfer), EPHB4; conditions: read-out: EPHB4-1
T5 construct: Kinases are expressed as either kinase domains or full length constructs; made in house
T5 sequence (P54760 16-987): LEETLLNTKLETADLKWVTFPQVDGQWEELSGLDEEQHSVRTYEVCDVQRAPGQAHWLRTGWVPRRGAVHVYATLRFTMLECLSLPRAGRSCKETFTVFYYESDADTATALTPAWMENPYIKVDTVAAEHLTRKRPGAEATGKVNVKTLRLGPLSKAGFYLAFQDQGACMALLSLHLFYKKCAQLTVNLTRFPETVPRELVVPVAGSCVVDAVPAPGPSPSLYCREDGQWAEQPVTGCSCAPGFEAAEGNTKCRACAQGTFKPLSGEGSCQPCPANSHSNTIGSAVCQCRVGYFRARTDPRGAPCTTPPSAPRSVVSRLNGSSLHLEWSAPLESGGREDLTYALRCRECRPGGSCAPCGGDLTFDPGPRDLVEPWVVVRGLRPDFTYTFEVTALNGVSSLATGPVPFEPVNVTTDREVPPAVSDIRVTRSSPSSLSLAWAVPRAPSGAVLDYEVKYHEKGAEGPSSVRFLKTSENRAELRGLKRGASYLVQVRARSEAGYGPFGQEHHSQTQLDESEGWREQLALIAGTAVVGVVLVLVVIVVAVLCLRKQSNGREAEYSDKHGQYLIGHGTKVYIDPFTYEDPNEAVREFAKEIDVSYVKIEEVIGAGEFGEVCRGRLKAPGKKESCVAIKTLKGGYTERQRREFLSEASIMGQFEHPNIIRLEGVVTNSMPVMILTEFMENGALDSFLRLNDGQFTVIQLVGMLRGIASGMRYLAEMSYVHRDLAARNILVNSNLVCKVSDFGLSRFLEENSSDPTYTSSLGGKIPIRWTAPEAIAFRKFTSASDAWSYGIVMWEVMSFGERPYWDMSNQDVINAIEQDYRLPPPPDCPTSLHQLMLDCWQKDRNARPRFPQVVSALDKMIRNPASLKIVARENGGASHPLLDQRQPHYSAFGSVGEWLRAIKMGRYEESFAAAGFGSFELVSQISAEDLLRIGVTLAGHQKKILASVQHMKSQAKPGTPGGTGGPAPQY

[6] = target: T6, c-Met (Homo sapiens, UniProt P08581); assay: Kinase inhibition assay (33P transfer), c-Met; conditions: Table 2, kinase inhibition class; read-out: Met-1
T6 construct: Kinases are expressed as either kinase domains or full length constructs; made in house
Method in brief: as §1

[7] = target: T7, Itk (Homo sapiens, UniProt Q08881); assay: Kinase inhibition assay (33P transfer), Itk; conditions: Table 3; read-out: Itk-1
T7 construct: Kinases are expressed as either kinase domains or full length constructs; made in house
T7 sequence (Q08881 1-620): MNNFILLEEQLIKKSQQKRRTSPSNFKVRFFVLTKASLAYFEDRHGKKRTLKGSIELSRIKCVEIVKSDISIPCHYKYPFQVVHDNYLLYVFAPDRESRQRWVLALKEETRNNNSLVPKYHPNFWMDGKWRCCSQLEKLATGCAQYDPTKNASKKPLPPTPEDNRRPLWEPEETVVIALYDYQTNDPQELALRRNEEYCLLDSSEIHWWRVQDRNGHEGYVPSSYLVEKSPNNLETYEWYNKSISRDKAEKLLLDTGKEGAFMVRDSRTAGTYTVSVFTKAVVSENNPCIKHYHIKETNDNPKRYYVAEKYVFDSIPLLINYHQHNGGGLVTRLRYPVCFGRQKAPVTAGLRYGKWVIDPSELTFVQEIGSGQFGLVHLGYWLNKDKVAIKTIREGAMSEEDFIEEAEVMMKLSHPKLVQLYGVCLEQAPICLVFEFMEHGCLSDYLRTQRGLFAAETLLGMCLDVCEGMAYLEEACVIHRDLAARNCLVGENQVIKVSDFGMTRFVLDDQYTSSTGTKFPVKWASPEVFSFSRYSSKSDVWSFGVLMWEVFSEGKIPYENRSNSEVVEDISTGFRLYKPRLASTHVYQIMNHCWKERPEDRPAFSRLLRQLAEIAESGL
Method in brief: as §1

[8] = target: T8, Hck-1 (Homo sapiens, UniProt P08631); assay: Kinase inhibition assay (33P transfer), Hck; conditions: Table 6, Hck-1 kinase inhibition class
T8 construct: Kinases are expressed as either kinase domains or full length constructs; made in house

[9] = target: T9, IGFR-1 (Homo sapiens, UniProt P08069); assay: Kinase inhibition assay (33P transfer), IGFR-1; conditions: Table 2, kinase inhibition class
T9 construct: Kinases are expressed as either kinase domains or full length constructs; made in house
T9 sequence (P08069 31-1367): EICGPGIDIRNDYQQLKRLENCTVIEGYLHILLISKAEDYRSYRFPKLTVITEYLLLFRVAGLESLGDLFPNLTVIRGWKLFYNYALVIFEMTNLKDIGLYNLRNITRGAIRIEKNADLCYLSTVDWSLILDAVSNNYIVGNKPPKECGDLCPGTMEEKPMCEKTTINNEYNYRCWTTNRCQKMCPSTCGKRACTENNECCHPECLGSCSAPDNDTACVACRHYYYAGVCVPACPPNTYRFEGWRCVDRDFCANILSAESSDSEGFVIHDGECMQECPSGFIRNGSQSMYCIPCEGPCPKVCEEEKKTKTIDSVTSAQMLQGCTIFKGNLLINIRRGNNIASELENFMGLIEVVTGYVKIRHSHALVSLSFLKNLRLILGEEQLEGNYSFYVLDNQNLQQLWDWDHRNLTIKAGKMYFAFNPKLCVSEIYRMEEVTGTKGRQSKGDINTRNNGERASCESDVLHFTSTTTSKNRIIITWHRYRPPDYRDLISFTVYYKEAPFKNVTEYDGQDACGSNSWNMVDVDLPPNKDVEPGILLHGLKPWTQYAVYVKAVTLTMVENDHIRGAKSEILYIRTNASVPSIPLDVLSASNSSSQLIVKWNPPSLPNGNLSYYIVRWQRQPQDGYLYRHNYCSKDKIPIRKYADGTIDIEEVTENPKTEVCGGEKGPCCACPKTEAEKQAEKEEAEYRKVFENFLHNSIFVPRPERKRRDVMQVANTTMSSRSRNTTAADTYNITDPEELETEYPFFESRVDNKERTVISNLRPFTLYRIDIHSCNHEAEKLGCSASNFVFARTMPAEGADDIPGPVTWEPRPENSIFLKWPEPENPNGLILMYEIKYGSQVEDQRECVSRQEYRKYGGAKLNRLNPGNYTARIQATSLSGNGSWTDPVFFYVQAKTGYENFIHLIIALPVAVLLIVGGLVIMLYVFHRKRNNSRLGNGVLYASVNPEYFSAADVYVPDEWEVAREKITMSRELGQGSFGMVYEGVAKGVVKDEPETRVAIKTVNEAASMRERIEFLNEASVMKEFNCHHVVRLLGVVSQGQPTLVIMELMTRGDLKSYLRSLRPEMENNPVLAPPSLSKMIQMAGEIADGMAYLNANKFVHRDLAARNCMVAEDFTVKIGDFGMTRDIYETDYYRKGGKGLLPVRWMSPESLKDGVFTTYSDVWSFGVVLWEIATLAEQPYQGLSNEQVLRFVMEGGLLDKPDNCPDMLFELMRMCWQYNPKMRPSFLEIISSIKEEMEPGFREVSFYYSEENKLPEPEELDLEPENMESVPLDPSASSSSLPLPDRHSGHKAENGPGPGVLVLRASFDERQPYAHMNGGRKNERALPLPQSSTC

T8 sequence (P08631 whole entry, the tested form may be a part): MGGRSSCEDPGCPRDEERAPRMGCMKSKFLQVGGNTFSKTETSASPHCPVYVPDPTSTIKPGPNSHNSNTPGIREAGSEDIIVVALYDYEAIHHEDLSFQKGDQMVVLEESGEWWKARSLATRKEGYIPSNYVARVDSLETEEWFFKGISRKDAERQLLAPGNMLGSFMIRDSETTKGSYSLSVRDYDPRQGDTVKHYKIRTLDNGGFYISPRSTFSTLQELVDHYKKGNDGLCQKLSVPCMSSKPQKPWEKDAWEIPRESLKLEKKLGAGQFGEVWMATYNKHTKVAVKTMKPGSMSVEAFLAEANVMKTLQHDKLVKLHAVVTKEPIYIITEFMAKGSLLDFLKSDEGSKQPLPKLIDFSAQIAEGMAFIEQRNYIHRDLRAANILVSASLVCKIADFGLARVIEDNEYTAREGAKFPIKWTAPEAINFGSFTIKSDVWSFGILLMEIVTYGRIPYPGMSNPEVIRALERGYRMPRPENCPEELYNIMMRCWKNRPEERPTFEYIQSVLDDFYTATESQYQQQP
T6 sequence (P08581 25-1390): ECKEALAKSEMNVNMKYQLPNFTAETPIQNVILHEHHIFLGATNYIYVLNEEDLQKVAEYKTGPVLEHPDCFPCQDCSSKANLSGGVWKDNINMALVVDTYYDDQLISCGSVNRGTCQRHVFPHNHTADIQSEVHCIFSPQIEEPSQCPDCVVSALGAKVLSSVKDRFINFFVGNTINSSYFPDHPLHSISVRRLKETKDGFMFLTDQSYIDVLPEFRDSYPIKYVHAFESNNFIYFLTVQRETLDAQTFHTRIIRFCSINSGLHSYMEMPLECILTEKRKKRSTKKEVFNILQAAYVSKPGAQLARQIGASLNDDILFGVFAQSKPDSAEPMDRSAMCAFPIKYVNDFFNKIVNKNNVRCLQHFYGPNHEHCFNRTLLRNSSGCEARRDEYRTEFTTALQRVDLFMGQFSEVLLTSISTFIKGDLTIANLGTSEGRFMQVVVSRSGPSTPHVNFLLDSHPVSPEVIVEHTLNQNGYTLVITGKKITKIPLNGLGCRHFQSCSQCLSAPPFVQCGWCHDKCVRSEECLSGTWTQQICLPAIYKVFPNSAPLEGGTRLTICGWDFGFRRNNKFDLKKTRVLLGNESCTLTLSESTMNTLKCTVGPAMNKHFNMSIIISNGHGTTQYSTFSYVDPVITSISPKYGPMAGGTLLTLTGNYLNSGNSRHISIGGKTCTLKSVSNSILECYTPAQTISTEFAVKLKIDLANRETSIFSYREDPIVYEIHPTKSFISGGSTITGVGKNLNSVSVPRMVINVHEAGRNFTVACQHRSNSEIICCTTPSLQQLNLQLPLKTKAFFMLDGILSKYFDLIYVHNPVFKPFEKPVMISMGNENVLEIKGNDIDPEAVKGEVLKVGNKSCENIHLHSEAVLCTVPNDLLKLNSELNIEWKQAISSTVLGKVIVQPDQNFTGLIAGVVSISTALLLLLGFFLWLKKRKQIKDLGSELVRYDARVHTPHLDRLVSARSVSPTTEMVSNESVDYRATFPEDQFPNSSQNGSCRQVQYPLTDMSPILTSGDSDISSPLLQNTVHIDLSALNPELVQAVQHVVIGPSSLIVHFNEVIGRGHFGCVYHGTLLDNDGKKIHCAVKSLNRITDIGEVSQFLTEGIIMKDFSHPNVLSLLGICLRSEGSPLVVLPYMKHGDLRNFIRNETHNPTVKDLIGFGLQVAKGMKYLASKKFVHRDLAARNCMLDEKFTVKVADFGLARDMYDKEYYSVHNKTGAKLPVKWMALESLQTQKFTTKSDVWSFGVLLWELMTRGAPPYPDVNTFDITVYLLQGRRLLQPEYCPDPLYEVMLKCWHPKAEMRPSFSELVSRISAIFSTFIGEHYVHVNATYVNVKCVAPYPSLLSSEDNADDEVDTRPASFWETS
T3 sequence (P06241 whole entry, species assumed, the tested form may be a part): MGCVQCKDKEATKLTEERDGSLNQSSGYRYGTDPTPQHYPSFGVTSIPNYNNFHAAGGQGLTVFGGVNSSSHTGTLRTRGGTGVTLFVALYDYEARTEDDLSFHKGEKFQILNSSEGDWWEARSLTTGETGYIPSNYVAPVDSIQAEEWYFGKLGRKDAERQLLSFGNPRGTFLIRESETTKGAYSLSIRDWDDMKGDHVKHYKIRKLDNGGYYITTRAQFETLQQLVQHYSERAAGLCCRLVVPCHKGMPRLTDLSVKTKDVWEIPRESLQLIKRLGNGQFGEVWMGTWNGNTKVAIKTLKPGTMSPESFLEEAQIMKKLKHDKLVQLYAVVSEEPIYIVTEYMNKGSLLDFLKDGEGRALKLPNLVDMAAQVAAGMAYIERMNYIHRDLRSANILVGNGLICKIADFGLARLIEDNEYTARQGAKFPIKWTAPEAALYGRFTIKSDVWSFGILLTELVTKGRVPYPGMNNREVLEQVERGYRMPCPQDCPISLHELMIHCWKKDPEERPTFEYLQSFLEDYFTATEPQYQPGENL
T4 sequence (P12931 whole entry, species assumed, the tested form may be a part): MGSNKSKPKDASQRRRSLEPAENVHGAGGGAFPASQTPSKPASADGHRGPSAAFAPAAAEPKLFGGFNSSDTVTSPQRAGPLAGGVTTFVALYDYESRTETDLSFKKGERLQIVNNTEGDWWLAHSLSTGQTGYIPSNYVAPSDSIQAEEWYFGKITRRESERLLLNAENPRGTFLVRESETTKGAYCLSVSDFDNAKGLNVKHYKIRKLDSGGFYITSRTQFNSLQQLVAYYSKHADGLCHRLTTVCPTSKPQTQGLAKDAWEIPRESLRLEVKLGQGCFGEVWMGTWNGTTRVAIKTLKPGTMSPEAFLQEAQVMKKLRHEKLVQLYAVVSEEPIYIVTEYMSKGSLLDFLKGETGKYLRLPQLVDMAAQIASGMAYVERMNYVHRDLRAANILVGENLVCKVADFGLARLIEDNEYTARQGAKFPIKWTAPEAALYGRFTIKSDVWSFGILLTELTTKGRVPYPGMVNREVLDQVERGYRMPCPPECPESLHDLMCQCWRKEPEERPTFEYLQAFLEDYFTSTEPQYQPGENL

SMILES | IC50 [1] [nM] | IC50 [2] [µM] | IC50 [3] [µM] | IC50 [4] [nM] | IC50 [5] [µM] | IC50 [6] [µM] | IC50 [7] [µM] | IC50 [8] [µM] | IC50 [9] [µM]
COc1ccc(Nc2ncnc(Nc3ccc(C)c(O)c3)n2)cc1OC [Compound 119] | < 1130 | 1.13 to 6.79 | < 1.13 | 1130 to 6790 | > 12.7 | > 12.7 | 9.9 to 12.7 | > 12.7 | 6.79 to 9.9
Cc1cccc(Nc2ncnc(Nc3ccc4[nH]ncc4c3)n2)c1 [Compound 120] | < 1260 | 1.26 to 7.56 | 1.26 to 7.56 | 1260 to 7560 | 1.26 to 7.56 | 7.56 to 11 | 7.56 to 11 | 1.26 to 7.56 | < 1.26
CCOc1ccc(Nc2ncnc(Nc3ccc(C)c(O)c3)n2)cc1OCC [Compound 121] | 1050 to 6290 | 1.05 to 6.29 | < 1.05 | < 1050 | > 11.8 | 9.18 to 11.8 | 9.18 to 11.8 | > 11.8 | > 11.8
COCCOc1ccc(Nc2ncnc(Nc3ccc(C)c(O)c3)n2)cc1OC [Compound 123] | < 1010 | 1.01 to 6.04 | 1.01 to 6.04 | < 1010 | > 11.3 | > 11.3 | 6.04 to 8.81 | 6.04 to 8.81 | 1.01 to 6.04
COCCOc1ccc(Nc2ncnc(Nc3ccc(C)c(O)c3)n2)cc1OCCOC [Compound 125] | 906 to 5440 | 7.93 to 10.2 | 0.906 to 5.44 | < 906 | > 10.2 | > 10.2 | 5.44 to 7.93 | 7.93 to 10.2 | 0.906 to 5.44
COCCOc1cc(Nc2ncnc(Nc3ccc(C)c(O)c3)n2)ccc1OC [Compound 127] | < 1010 | 1.01 to 6.04 | < 1.01 | < 1010 | 8.81 to 11.3 | > 11.3 | > 11.3 | 1.01 to 6.04 | 1.01 to 6.04
COc1cc(Nc2ncnc(Nc3cccc(Cl)c3)n2)cc(OC)c1OC [Compound 135] | < 1030 | 6.19 to 9.02 | < 1.03 | < 1030 | < 1.03 | 1.03 to 6.19 | 6.19 to 9.02 | > 11.6 | < 1.03
COc1cc(Nc2ncnc(Nc3ccc(OCc4ccccc4)cc3)n2)cc(OC)c1 [Compound 156] | < 931 | 5.59 to 8.15 | 5.59 to 8.15 | > 10500 | > 10.5 | 8.15 to 10.5 | > 10.5 | > 10.5 | > 10.5
CCOc1ccc(Nc2ncnc(Nc3ccc(OCc4ccccc4)cc3)n2)cc1OCC [Compound 170] | 874 to 5250 | 7.65 to 9.84 | > 9.84 | > 9840 | 5.25 to 7.65 | 5.25 to 7.65 | > 9.84 | > 9.84 | > 9.84
COc1ccc(Sc2ncnc(Nc3cc(OC)c(OC)c(OC)c3)n2)cc1 [Compound 175] | > 11200 | > 11.2 | 0.999 to 5.99 | 999 to 5990 | 0.999 to 5.99 | 0.999 to 5.99 | > 11.2 | > 11.2 | 0.999 to 5.99
COc1cc(Nc2ncnc(Nc3ccc4c(ccn4Cc4ccccc4)c3)n2)cc(OC)c1OC [Compound 178] | < 829 | > 9.33 | 0.829 to 4.97 | 829 to 4970 | 4.97 to 7.25 | 4.97 to 7.25 | > 9.33 | > 9.33 | 0.829 to 4.97
COc1cc(Nc2ncnc(-n3ccc4ccccc43)n2)cc(OC)c1OC [Compound 185] | > 11900 | > 11.9 | > 11.9 | > 11900 | > 11.9 | 9.27 to 11.9 | > 11.9 | > 11.9 | 1.06 to 6.36
COc1cc(Nc2ncnc(-n3cnc4ccccc43)n2)cc(OC)c1OC [Compound 186] | 9250 to 11900 | > 11.9 | > 11.9 | > 11900 | > 11.9 | 1.06 to 6.34 | > 11.9 | > 11.9 | 1.06 to 6.34
